± gives the expanded uncertainty stated by the source.
Columns and labels:
[1] = excess molar enthalpy (molar enthalpy of mixing); xn = mol fraction of the nth substance listed; conditions: 100 kPa, Liquid, Flow calorimetry
[2] = 101.33 kPa, Liquid, Vibrating tube method

CC1(C)C(=O)[C@]2(C)CC[C@H]1C2 [(-)-fenchone] + CCCCCO
excess molar enthalpy [kcal/mol], [1]
Conditions | 283.15 K | 298.15 K | 313.15 K | 328.15 K
x1 = 0.049 | 0.0507 ± 0.00191 | 0.0559 ± 0.00215 | 0.0588 ± 0.00215 | 0.0607 ± 0.00215
x1 = 0.099 | 0.0966 ± 0.00311 | 0.108 ± 0.00359 | 0.115 ± 0.00382 | 0.118 ± 0.00382
x1 = 0.199 | 0.179 ± 0.0055 | 0.197 ± 0.00621 | 0.207 ± 0.00645 | 0.212 ± 0.00669
x1 = 0.3 | 0.231 ± 0.00717 | 0.259 ± 0.00813 | 0.276 ± 0.0086 | 0.283 ± 0.00884
x1 = 0.397 | 0.264 ± 0.00813 | 0.299 ± 0.00932 | 0.321 ± 0.01 | 0.331 ± 0.0103
x1 = 0.498 | 0.276 ± 0.0086 | 0.314 ± 0.0098 | 0.337 ± 0.0105 | 0.349 ± 0.0108
x1 = 0.596 | 0.269 ± 0.00837 | 0.306 ± 0.00956 | 0.329 ± 0.0103 | 0.341 ± 0.0105
x1 = 0.702 | 0.241 ± 0.00741 | 0.274 ± 0.0086 | 0.294 ± 0.00908 | 0.304 ± 0.00932
x1 = 0.803 | 0.192 ± 0.00598 | 0.216 ± 0.00669 | 0.229 ± 0.00717 | 0.236 ± 0.00741
x1 = 0.898 | 0.109 ± 0.00359 | 0.125 ± 0.00406 | 0.135 ± 0.0043 | 0.139 ± 0.00454
x1 = 0.949 | 0.0574 ± 0.00215 | 0.0645 ± 0.00239 | 0.0693 ± 0.00263 | 0.0719 ± 0.00263

CC1(C)C(=O)[C@]2(C)CC[C@H]1C2 [(-)-fenchone] + CCCCO
excess molar enthalpy [kcal/mol], [1]
Conditions | 283.15 K | 298.15 K | 313.15 K | 328.15 K
x1 = 0.05 | 0.0509 ± 0.00191 | 0.0569 ± 0.00215 | 0.0609 ± 0.00215 | 0.0636 ± 0.00239
x1 = 0.1 | 0.0966 ± 0.00311 | 0.109 ± 0.00359 | 0.117 ± 0.00382 | 0.122 ± 0.00382
x1 = 0.203 | 0.175 ± 0.0055 | 0.194 ± 0.00598 | 0.208 ± 0.00645 | 0.217 ± 0.00669
x1 = 0.3 | 0.222 ± 0.00693 | 0.25 ± 0.00765 | 0.269 ± 0.00837 | 0.282 ± 0.00884
x1 = 0.396 | 0.255 ± 0.00789 | 0.289 ± 0.00884 | 0.313 ± 0.0098 | 0.328 ± 0.0103
x1 = 0.499 | 0.267 ± 0.00837 | 0.305 ± 0.00956 | 0.331 ± 0.0103 | 0.348 ± 0.0108
x1 = 0.603 | 0.261 ± 0.00813 | 0.299 ± 0.00932 | 0.325 ± 0.01 | 0.341 ± 0.0105
x1 = 0.692 | 0.237 ± 0.00741 | 0.27 ± 0.00837 | 0.292 ± 0.00908 | 0.305 ± 0.00956
x1 = 0.805 | 0.184 ± 0.00574 | 0.208 ± 0.00645 | 0.222 ± 0.00693 | 0.23 ± 0.00717
x1 = 0.898 | 0.105 ± 0.00335 | 0.122 ± 0.00382 | 0.132 ± 0.0043 | 0.137 ± 0.0043
x1 = 0.95 | 0.0538 ± 0.00191 | 0.0617 ± 0.00239 | 0.0664 ± 0.00239 | 0.0686 ± 0.00263

CCCCO [butan-1-ol]
[2]
Conditions | mass density [kg/m3]
283.15 K | 817.11 ± 0.41
298.15 K | 805.72 ± 0.41
313.15 K | 794.4 ± 0.41
328.15 K | 782.11 ± 0.41

CCCCCO [pentan-1-ol]
[2]
Conditions | mass density [kg/m3]
283.15 K | 821.79 ± 0.42
298.15 K | 810.9 ± 0.42
313.15 K | 799.8 ± 0.42
328.15 K | 788.82 ± 0.42
